In patent US20230257372A1 (CHONG KUN DANG PHARMACEUTICAL CORP., priority 2020, published 2023):
Read-outs that look alike come from different tables or passages of the source.

Experiments:
[1] = biological target: T1, human recombinant HDAC1 (Homo sapiens, UniProt Q13547); assay: HDAC1 enzyme activity inhibition (HDAC Fluorimetric Drug Discovery Kit); format: biochemical; conditions: read-out: HDAC1
T1 construct: purchased Enzo Life Science, Inc. BML-SE456
Procedure, shortened: (§1)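 Each isoform is run in the same format: compound dilutions (5-fold steps), 10 μM substrate, […] enzyme, one hour at 30° C, then 30 minutes with developer before fluorescence readout.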

[2] = biological target: T2, human recombinant HDAC6 (Homo sapiens, UniProt Q9UBN7); assay: HDAC6 enzyme activity inhibition (HDAC Fluorimetric Drug Discovery Kit); format: biochemical
T2 construct: purchased Calbiochem Inc. 382180
T2 sequence (Q9UBN7 1-1215): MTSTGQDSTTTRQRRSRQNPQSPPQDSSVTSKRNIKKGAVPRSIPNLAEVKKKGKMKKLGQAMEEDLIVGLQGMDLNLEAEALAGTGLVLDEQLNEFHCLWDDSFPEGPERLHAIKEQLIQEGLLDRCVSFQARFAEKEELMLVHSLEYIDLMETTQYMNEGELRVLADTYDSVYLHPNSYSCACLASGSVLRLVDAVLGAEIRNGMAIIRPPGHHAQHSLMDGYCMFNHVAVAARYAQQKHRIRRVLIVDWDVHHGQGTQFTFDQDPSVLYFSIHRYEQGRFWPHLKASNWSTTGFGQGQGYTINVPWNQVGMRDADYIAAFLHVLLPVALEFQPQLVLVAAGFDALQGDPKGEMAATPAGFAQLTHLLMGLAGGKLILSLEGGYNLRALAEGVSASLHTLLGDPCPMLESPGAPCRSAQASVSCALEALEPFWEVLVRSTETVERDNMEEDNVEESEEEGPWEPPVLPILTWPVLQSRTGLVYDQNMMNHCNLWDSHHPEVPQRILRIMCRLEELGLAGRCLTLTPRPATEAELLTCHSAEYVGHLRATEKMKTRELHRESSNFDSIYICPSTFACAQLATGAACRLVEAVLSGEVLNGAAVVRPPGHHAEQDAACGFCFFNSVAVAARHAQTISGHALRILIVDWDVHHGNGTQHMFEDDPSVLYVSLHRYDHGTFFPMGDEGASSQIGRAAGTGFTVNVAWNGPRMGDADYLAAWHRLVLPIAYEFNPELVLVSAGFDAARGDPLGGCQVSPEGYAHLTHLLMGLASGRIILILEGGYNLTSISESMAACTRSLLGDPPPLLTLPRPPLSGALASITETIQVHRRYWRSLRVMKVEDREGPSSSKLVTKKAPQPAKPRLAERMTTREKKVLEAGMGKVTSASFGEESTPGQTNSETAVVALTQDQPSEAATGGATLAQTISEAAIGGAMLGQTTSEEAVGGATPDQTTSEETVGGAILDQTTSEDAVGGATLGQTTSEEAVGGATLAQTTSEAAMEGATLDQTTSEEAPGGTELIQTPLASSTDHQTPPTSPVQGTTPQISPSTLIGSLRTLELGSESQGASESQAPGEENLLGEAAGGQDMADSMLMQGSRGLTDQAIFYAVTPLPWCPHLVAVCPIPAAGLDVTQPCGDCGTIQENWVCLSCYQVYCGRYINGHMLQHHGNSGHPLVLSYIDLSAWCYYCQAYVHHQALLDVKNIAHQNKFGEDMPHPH
Procedure, shortened: as §1

[3] = tested on: hippocampal neurons from a Sprague-Dawley (SD) rat fetus; assay: Effect of HDAC6-specific inhibitor on axonal transport of mitochondria in amyloid-beta treated neurons; format: cell-based; conditions: transport velocity of mitochondria in neuronal axon after normalization; vehicle = 100%, amyloid beta treatment group = 0%; compound treatment for three hours
Procedure: On the 17th to 18th days (E17-18) of insemination, the hippocampal neurons from a Sprague-Dawley (SD) rat fetus were cultured in a culture container for imaging, which had been coated with extracellular matrix, and were treated with amyloid-beta protein fragments at a concentration of […]. In 24 hours later, the neurons were treated with the compound on the 8th day of in vitro culture. In three hours later, the resulting neurons were treated with MitoTracker Red CMXRos (Life Technologies, NY, USA) for last five minutes to stain mitochondria. An image on the axonal transport of stained neuron mitochondria was taken with a confocal microscope (Leica SP8; Leica microsystems, UK) at an interval of one second for one minute to measure a transport velocity of each mitochondria per second with an IMARIS analysis program (BITPLANE, Zurich, Switzerland).
In result, after setting a section, in which the group treated with amyloid-beta had shown a significant decrease in the transport velocity of mitochondria compared to a vehicle, it was confirmed for 1,3,4-oxadiazole triazol derivative compounds of the present invention, stereoisomers thereof or pharmaceutically acceptable salts thereof that the vehicles is represented as 100%, the amyloid beta treatment group is represented as 0%, a velocity distribution of the compound after normalization is represented as *, 0%˜50%; **, 50%˜100%; ***, >100%.

[4] = human recombinant HDAC1, IC50 calculated with GraphPad Prism
[5] = human recombinant HDAC6, IC50 calculated with GraphPad Prism
[6] = human recombinant HDAC1, Fluor de Lys substrate, 30° C. 60 minutes
[7] = human recombinant HDAC6, same protocol as HDAC1

T1 sequence (Q13547 whole entry): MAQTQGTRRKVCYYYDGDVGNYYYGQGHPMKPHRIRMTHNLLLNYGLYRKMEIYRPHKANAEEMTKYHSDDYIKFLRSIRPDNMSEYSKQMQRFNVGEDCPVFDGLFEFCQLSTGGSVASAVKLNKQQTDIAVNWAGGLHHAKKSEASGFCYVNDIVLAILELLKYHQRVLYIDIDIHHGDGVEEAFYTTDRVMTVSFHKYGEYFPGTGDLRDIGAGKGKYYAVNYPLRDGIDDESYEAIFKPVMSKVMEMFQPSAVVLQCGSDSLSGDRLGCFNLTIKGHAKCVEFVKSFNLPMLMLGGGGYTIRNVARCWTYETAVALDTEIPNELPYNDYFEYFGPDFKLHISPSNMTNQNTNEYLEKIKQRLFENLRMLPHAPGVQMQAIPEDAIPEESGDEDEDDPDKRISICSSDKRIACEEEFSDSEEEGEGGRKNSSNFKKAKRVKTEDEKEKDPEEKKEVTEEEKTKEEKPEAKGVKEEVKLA

SMILES	IC50 [1, 4]	HDAC6 selectivity (fold) ([2]; HDAC1 IC50 / HDAC6 IC50)	IC50 [2, 5]	Velocity distribution (%) [3]	IC50 [1, 6]	HDAC6 selectivity (fold) ([2]; HDAC6 over HDAC1)	IC50 [2, 7]
Cc1ccc(-c2cn(Cc3ccc(-c4nnc(C(F)F)o4)cn3)nn2)cn1 [Compound 3925, 2-(difluoromethyl)-5-(6-((4-(6-methylpyridin-3-yl)-1H-1,2,3-triazol-1-yl)methyl)pyridin-3-yl)-1,3,4-oxadiazole]	> 50000 nM	1424 fold	35.1 nM	*** (***, >100%)			
Fc1cc(-c2nnc(C(F)F)o2)ccc1Cn1cc(-c2cccc3[nH]ncc23)nn1 [Compound 4348, 2-(4-((4-(1H-indazol-4-yl)-1H-1,2,3-triazol-1-yl)methyl)-3-fluorophenyl)-5-(difluoromethyl)-1,3,4-oxadiazole]	> 50000 nM	7352 fold	6.8 nM	** (**, 50%˜100%)			
Fc1cc(-c2nnc(C(F)F)o2)ccc1Cn1cc(-c2ccc3[nH]ccc3c2)nn1 [Compound 4135, 2-(4-((4-(1H-indol-5-yl)-1H-1,2,3-triazol-1-yl)methyl)-3-fluorophenyl)-5-(difluoromethyl)-1,3,4-oxadiazole]	> 50000 nM	2941 fold	16.7 nM	** (**, 50%˜100%)			
CCN1CCN(c2cccc(-c3cn(Cc4ccc(-c5nnc(C(F)F)o5)cc4F)nn3)c2)CC1 [Compound 4373, 2-(difluoromethyl)-5-(4-((4-(3-(4-ethylpiperazin-1-yl)phenyl)-1H-1,2,3-triazol-1-yl)methyl)-3-fluorophenyl)-1,3,4-oxadiazole]	> 50000 nM	335 fold	14.9 nM	*** (***, >100%)			
Fc1cc(-c2nnc(C(F)F)o2)cnc1Cn1cc(-c2ccc(CN3CCC3)cc2)nn1 [Compound 18306, 2-(6-((4-(4-(azetidin-1l-ylmethyl)phenyl)-1H-1,2,3-triazol-1-yl)methyl)-5-fluoropyridin-3-yl)-5-(difluoromethyl)-1,3,4-oxadiazole]				*** (***, >100%)	> 50000 nM	1184 fold	42.2 nM
CN1CCN(c2cccc(-c3cn(Cc4ccc(-c5nnc(C(F)F)o5)cn4)nn3)c2)CC1 [Compound 3867, 2-(difluoromethyl)-5-(6-((4-(3-(4-methylpiperazin-1-yl)phenyl)-1H-1,2,3-triazol-1-yl)methyl)pyridin-3-yl)-1,3,4-oxadiazole]	> 50000 nM	1953 fold	25.6 nM	** (**, 50%˜100%)			
Cc1cc2ccc(-c3cn(Cc4ccc(-c5nnc(C(F)F)o5)cn4)nn3)cc2[nH]1 [Compound 4287, 2-(difluoromethyl)-5-(6-((4-(2-methyl-1H-indol-6-yl)-1H-1,2,3-triazol-1-yl)methyl)pyridin-3-yl)-1,3,4-oxadiazole]	> 50000 nM	2092 fold	23.9 nM	*** (***, >100%)			
CC(C)(F)C(=O)Nc1cccc(-c2cn(Cc3ccc(-c4nnc(C(F)F)o4)cn3)nn2)c1 [Compound 3987, N-(3-(1-((5-(5-(difluoromethyl)-1,3,4-oxadiazol-2-yl)pyridin-2-yl)methyl)-1H-1,2,3-triazol-4-yl)phenyl)-2-fluoro-2-methylpropanamide]	> 50000 nM	5494 fold	9.1 nM	* (*, 0%˜50%)			
Fc1cc(-c2nnc(C(F)F)o2)ccc1Cn1cc(-c2ccc(CN3CC[C@H](F)C3)cn2)nn1 [Compound 18185, (S)-2-(difluoromethyl)-5-(3-fluoro-4-((4-(5-((3-fluoropyrrolidin-1-yl)methyl)pyridin-2-yl)-1H-1,2,3-triazol-1-yl)methyl)phenyl)-1,3,4-oxadiazole]				*** (***, >100%)	> 50000 nM	806 fold	62 nM
CC(C)N1CCc2ccc(-c3cn(Cc4ccc(-c5nnc(C(F)F)o5)cn4)nn3)cc2C1 [Compound 4210, 2-(difluoromethyl)-5-(6-((4-(2-isopropyl-1,2,3,4-tetrahydroisoquinolin-7-yl)-1H-1,2,3-triazol-1-yl)methyl)pyridin-3-yl)-1,3,4-oxadiazole]	> 50000 nM	963 fold	51.9 nM	* (*, 0%˜50%)			
FC(F)c1nnc(-c2ccc(Cn3cc(-c4ccc5cc[nH]c5c4)nn3)cc2)o1 [Compound 4076, 2-(4-((4-(1H-indol-6-yl)-1H-1,2,3-triazol-1-yl)methyl)phenyl)-5-(difluoromethyl)-1,3,4-oxadiazole]	> 50000 nM	739 fold	67.6 nM	*** (***, >100%)			
FC(F)c1nnc(-c2ccc(Cn3cc(-c4ccc5occc5c4)nn3)nc2)o1 [Compound 4073, 2-(6-((4-(benzofuran-5-yl)-1H-1,2,3-triazol-1-yl)methyl)pyridin-3-yl)-5-(difluoromethyl)-1,3,4-oxadiazole]	> 50000 nM	822 fold	60.8 nM	** (**, 50%˜100%)			
Fc1cc(-c2nnc(C(F)F)o2)ccc1Cn1cc(-c2ccc3cn[nH]c3c2)nn1 [Compound 4342, 2-(4-((4-(1H-indazol-6-yl)-1H-1,2,3-triazol-1-yl)methyl)-3-fluorophenyl)-5-(difluoromethyl)-1,3,4-oxadiazole]	> 50000 nM	1453 fold	34.4 nM	* (*, 0%˜50%)			
FC(F)c1nnc(-c2ccc(Cn3cc(-c4cccc(CN5CCOCC5)c4)nn3)nc2)o1 [Compound 3916, 4-(3-(1-((5-(5-(difluoromethyl)-1,3,4-oxadiazol-2-yl)pyridin-2-yl)methyl)-1H-1,2,3-triazol-4-yl)benzyl)morpholine]	> 50000 nM	1754 fold	28.5 nM	*** (***, >100%)			
CN(C)Cc1ccc(-c2cn(Cc3ccc(-c4nnc(C(F)F)o4)cc3F)nn2)nc1 [Compound 17534, 1-(6-(1-(4-(5-(difluoromethyl)-1,3,4-oxadiazol-2-yl)-2-fluorobenzyl)-1H-1,2,3-triazol-4-yl)pyridin-3-yl)-N,N-dimethylmethanamine]				*** (***, >100%)	> 50000 nM	1319 fold	37.9 nM
FC(F)c1nnc(-c2ccc(Cn3cc(-c4ccc5[nH]ccc5c4)nn3)nc2)o1 [Compound 4072, 2-(6-((4-(1H-indol-5-yl)-1H-1,2,3-triazol-1-yl)methyl)pyridin-3-yl)-5-(difluoromethyl)-1,3,4-oxadiazole]	> 50000 nM	4854 fold	10.3 nM	** (**, 50%˜100%)			
